Data taken from publication PMC4415393, “Immobilized laccase mediated dye decolorization and transformation pathway of azo dye acid red 27” (Journal of Environmental Health Science and Engineering, 2015).

Assays:
[1] = biological target: T1, PVA-nitrate immobilized laccase (Cyathus bulleri, UniProt A8W7J6); experiment: Laccase assay with inhibitors and ABTS kinetics, immobilized enzyme; assay type: biochemical; settings: 1 h pre-incubation
T1 sequence (A8W7J6 17-513): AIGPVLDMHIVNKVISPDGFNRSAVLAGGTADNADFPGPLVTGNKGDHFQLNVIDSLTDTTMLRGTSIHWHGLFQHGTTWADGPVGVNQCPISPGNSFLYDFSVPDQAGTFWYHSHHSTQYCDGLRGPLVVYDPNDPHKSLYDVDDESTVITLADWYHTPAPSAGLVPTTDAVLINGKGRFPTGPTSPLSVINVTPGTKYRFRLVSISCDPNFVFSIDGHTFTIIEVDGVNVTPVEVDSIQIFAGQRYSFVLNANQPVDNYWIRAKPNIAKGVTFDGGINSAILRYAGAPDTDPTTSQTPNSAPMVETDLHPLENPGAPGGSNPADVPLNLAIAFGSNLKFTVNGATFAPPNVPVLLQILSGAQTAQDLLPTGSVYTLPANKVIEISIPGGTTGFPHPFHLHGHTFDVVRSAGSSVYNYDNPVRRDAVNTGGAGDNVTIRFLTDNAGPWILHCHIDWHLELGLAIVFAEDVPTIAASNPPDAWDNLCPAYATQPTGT

Free laccase = biological target: T2, Free laccase (Cyathus bulleri, UniProt A8W7J6); experiment: Laccase assay with inhibitors and ABTS kinetics, free enzyme; assay type: biochemical; settings: 1 h pre-incubation
T2 sequence (A8W7J6 17-513): T1 sequence (A8W7J6 17-513)

SMILES: [N-]=[N+]=[N-] [sodium azide]
- IC50 [1]: 6 ± 0.3 µM
- IC50 (Free laccase): 5 ± 0.5 µM
